Experimental data taken from patent US8642609B2, “Modulators of ATP-binding cassette transporters” (Vertex Pharmaceuticals Incorporated, priority 2003, dated 2014).

Biological target: T1, ΔF508-CFTR (Homo sapiens, UniProt P13569, DEL508-508)
T1 construct: expressed in transfected cells
Test: Membrane potential optical assay (FRET/VIPR), identification of correction compounds
Assay type: cell-based
Details: for Emax: relative efficacy
Text: I) Membrane Potential Optical Methods for Assaying ΔF508-CFTR Modulation Properties of Compounds
The optical membrane potential assay utilized voltage-sensitive FRET sensors described by Gonzalez and Tsien (See, Gonzalez, J. E. and R. Y. Tsien (1995) “Voltage sensing by fluorescence resonance energy transfer in single cells” Biophys J 69(4): 1272-80, and Gonzalez, J. E. and R. Y. Tsien (1997) “Improved indicators of cell membrane potential that use fluorescence resonance energy transfer” Chem Biol 4(4): 269-77) in combination with instrumentation for measuring fluorescence changes such as the Voltage/Ion Probe Reader (VIPR) (See, Gonzalez, J. E., K. Oades, et al. (1999) “Cell-based assays and instrumentation for screening ion-channel targets” Drug Discov Today 4(9): 431-439).
These voltage sensitive assays are based on the change in fluorescence resonant energy transfer (FRET) between the membrane-soluble, voltage-sensitive dye, DiSBAC2(3), and a fluorescent phospholipid, CC2-DMPE, which is attached to the outer leaflet of the plasma membrane and acts as a FRET donor. Changes in membrane potential (Vm) cause the negatively charged DiSBAC2(3) to redistribute across the plasma membrane and the amount of energy transfer from CC2-DMPE changes accordingly. The changes in fluorescence emission were monitored using VIPR™ II, which is an integrated liquid handler and fluorescent detector designed to conduct cell-based screens in 96- or 384-well microtiter plates.
Identification of Correction Compounds
To identify small molecules that correct the trafficking defect associated with ΔF508-CFTR; a single-addition HTS assay format was developed. The cells were incubated in serum-free medium for 16 hrs at 37° C. in the presence or absence (negative control) of test compound. As a positive control, cells plated in 384-well plates were incubated for 16 hrs at 27° C. to “temperature-correct” ΔF508-CFTR. The cells were subsequently rinsed 3× with Krebs Ringers solution and loaded with the voltage-sensitive dyes. To activate ΔF508-CFTR, 10 μM forskolin and the CFTR potentiator, genistein (20 μM), were added along with Cl^−-free medium to each well. The addition of Cl^−-free medium promoted Cl^− efflux in response to ΔF508-CFTR activation and the resulting membrane depolarization was optically monitored using the FRET-based voltage-sensor dyes.
NIH3T3 mouse fibroblasts stably expressing ΔF508-CFTR are used for optical measurements of membrane potential. The cells are maintained at 37° C. in 5% CO2 and 90% humidity in Dulbecco's modified Eagle's medium supplemented with 2 mM glutamine, 10% fetal bovine serum, 1×NEAA, β-ME, 1× pen/strep, and 25 mM HEPES in 175 cm^2 culture flasks. For all optical assays, the cells were seeded at 30,000/well in 384-well matrigel-coated plates and cultured for 2 hrs at 37° C. before culturing at 27° C. for 24 hrs. for the potentiator assay. For the correction assays, the cells are cultured at 27° C. or 37° C. with and without compounds for 16-24 hours B) Electrophysiological Assays for assaying ΔF508-CFTR modulation properties of compounds

T1 sequence (P13569 with tags, fused parts or gaps DEL508-508): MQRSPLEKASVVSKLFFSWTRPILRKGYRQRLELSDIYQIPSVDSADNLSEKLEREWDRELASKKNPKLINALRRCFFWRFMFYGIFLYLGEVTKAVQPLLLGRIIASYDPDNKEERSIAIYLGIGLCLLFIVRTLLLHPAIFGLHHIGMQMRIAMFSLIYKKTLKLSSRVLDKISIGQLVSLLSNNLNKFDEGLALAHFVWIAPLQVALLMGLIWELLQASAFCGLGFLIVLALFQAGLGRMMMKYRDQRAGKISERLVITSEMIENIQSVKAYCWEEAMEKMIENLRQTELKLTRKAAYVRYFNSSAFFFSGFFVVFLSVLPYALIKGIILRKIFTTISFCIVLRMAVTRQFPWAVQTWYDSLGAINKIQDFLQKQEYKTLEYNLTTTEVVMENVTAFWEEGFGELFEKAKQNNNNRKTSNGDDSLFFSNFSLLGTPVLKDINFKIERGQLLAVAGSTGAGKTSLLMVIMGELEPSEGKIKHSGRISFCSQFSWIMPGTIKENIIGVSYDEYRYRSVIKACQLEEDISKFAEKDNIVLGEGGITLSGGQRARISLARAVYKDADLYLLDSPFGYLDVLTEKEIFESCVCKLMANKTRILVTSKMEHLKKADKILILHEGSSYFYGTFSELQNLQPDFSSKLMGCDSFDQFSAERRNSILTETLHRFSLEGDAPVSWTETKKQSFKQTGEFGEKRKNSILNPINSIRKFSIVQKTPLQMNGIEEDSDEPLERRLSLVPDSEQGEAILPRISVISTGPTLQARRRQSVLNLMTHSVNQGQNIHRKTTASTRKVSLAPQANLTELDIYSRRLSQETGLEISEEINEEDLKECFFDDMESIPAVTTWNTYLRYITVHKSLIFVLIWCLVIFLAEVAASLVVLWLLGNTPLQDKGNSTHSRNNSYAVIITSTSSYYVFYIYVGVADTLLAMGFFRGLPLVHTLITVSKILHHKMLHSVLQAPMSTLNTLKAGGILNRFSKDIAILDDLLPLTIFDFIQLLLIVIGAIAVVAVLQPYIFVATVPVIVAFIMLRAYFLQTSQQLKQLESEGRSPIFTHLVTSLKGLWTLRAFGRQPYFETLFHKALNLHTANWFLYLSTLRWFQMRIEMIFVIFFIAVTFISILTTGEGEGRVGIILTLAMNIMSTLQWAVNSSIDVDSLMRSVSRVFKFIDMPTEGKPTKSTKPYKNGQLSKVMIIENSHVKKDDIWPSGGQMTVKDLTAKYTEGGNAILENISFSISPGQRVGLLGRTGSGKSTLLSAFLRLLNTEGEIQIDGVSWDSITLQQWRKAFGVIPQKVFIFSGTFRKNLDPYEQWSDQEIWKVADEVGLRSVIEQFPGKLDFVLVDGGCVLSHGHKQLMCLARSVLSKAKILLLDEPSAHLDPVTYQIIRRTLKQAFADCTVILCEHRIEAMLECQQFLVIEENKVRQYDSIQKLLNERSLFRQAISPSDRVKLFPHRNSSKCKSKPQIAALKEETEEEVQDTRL

SMILES	EC50 [µM]	Emax [%]
Cc1ccccc1S(=O)(=O)N1CCN(C(C)c2nc3cc(Cl)ccc3c(=O)n2C)CC1 (centres unmarked) [compound 109]	10 to 25	25 to 100
CC(c1nc2cc(Cl)ccc2c(=O)n1C)N1CCN(S(=O)(=O)c2ccc(S(C)(=O)=O)cc2)CC1 (centres unmarked) [compound 110]	10 to 25	< 25
CC(=O)Nc1ccc(S(=O)(=O)N2CCN(C(C)c3nc4cc(Cl)ccc4c(=O)n3C)CC2)cc1 (centres unmarked) [compound 111]	10 to 25	25 to 100
CC(c1nc2cc(Cl)ccc2c(=O)n1C)N1CCN(C(=O)Cc2ccccc2)CC1 (centres unmarked) [compound 112]	10 to 25	< 25
Cc1cccc(CC(=O)N2CCN(C(C)c3nc4cc(Cl)ccc4c(=O)n3C)CC2)c1 (centres unmarked) [compound 113]	10 to 25	< 25
CC(c1nc2ccc(Br)cc2c(=O)n1C)N1CCN(S(=O)(=O)c2ccccc2)CC1 (centres unmarked) [compound 114]	10 to 25	25 to 100
Cc1ccc(S(=O)(=O)N2CCN(C(C)c3nc4ccc(Br)cc4c(=O)n3C)CC2)cc1 (centres unmarked) [compound 115]	10 to 25	< 25
COc1ccc(S(=O)(=O)N2CCN(C(C)c3nc4ccc(Br)cc4c(=O)n3C)CC2)cc1 (centres unmarked) [compound 116]	< 10	25 to 100
CC(c1nc2ccc(Br)cc2c(=O)n1C)N1CCN(S(=O)(=O)c2ccc(Cl)cc2)CC1 (centres unmarked) [compound 117]	10 to 25	25 to 100
CC(c1nc2ccc(Br)cc2c(=O)n1C)N1CCN(S(=O)(=O)c2ccc(Br)cc2)CC1 (centres unmarked) [compound 118]	< 10	25 to 100
Cc1cccc(C(=O)N2CCN(C(C)c3nc4cc(Cl)ccc4c(=O)n3C)CC2)c1 (centres unmarked) [compound 119]	10 to 25	25 to 100
Cc1ccc(C(=O)N2CCN(C(C)c3nc4cc(Cl)ccc4c(=O)n3C)CC2)cc1 (centres unmarked) [compound 120]	10 to 25	< 25
CC(c1nc2cc(Cl)ccc2c(=O)n1C)N1CCN(C(=O)c2ccc(F)cc2)CC1 (centres unmarked) [compound 121]	10 to 25	< 25
COc1ccc(C(=O)N2CCN(C(C)c3nc4cc(Cl)ccc4c(=O)n3C)CC2)cc1 (centres unmarked) [compound 122]	10 to 25	< 25
CC(c1nc2ccc(C#N)cc2c(=O)n1C)N1CCN(S(=O)(=O)c2ccccc2)CC1 (centres unmarked) [compound 123]	10 to 25	< 25
COc1ccc(S(=O)(=O)N2CCN(C(C)c3nc4ccc(C#N)cc4c(=O)n3C)CC2)cc1 (centres unmarked) [compound 124]	10 to 25	25 to 100
Cc1ccc(S(=O)(=O)N2CCN(C(C)c3nc4ccc(C#N)cc4c(=O)n3C)CC2)cc1 (centres unmarked) [compound 125]	10 to 25	25 to 100
CC(c1nc2ccc(C#N)cc2c(=O)n1C)N1CCN(S(=O)(=O)c2ccc(Cl)cc2)CC1 (centres unmarked) [compound 126]	10 to 25	25 to 100
CC(c1nc2ccccc2c(=O)[nH]1)N1CCN(S(=O)(=O)c2ccc(Br)cc2)CC1 (centres unmarked) [compound 127]	10 to 25	25 to 100
CC(c1nc2ccccc2c(=O)[nH]1)N1CCN(S(=O)(=O)c2ccccc2)CC1 (centres unmarked) [compound 128]	10 to 25	< 25
Cc1ccc(S(=O)(=O)N2CCN(C(C)c3nc4ccccc4c(=O)[nH]3)CC2)cc1 (centres unmarked) [compound 129]	10 to 25	< 25
COc1ccc(S(=O)(=O)N2CCN(C(C)c3nc4ccccc4c(=O)[nH]3)CC2)cc1 (centres unmarked) [compound 130]	10 to 25	< 25
CC(c1nc2ccccc2c(=O)[nH]1)N1CCN(S(=O)(=O)c2ccc(Cl)cc2)CC1 (centres unmarked) [compound 131]	10 to 25	< 25
COc1ccc2nc(C(C)N3CCN(S(=O)(=O)c4ccc(Br)cc4)CC3)n(C)c(=O)c2c1 (centres unmarked) [compound 132]	< 10	> 100
COc1ccc2nc(C(C)N3CCN(S(=O)(=O)c4ccccc4)CC3)n(C)c(=O)c2c1 (centres unmarked) [compound 133]	10 to 25	25 to 100
COc1ccc2nc(C(C)N3CCN(S(=O)(=O)c4ccc(C)cc4)CC3)n(C)c(=O)c2c1 (centres unmarked) [compound 134]	10 to 25	25 to 100

SMILES	EC50 [µM]	Emax [%]
COc1ccc(S(=O)(=O)N2CCN(C(C)c3nc4ccc(OC)cc4c(=O)n3C)CC2)cc1 (centres unmarked) [compound 135]	10 to 25	25 to 100
COc1ccc2nc(C(C)N3CCN(S(=O)(=O)c4ccc(Cl)cc4)CC3)n(C)c(=O)c2c1 (centres unmarked) [compound 136]	< 10	> 100
COc1ccc(S(=O)(=O)N2CCN(Cc3nc4ccc(Cl)cc4c(=O)n3C)CC2)cc1 [compound 137]	10 to 25	25 to 100
CC(c1nc2ccc(S(C)(=O)=O)cc2c(=O)n1C)N1CCN(S(=O)(=O)c2ccccc2)CC1 (centres unmarked) [compound 138]	10 to 25	< 25
Cc1ccc(S(=O)(=O)N2CCN(C(C)c3nc4ccc(S(C)(=O)=O)cc4c(=O)n3C)CC2)cc1 (centres unmarked) [compound 139]	10 to 25	25 to 100
COc1ccc(S(=O)(=O)N2CCN(C(C)c3nc4ccc(S(C)(=O)=O)cc4c(=O)n3C)CC2)cc1 (centres unmarked) [compound 140]	10 to 25	25 to 100
CC(c1nc2ccc(S(C)(=O)=O)cc2c(=O)n1C)N1CCN(S(=O)(=O)c2ccc(Cl)cc2)CC1 (centres unmarked) [compound 141]	10 to 25	25 to 100
CC(c1nc2ccc(S(C)(=O)=O)cc2c(=O)n1C)N1CCN(S(=O)(=O)c2ccc(Br)cc2)CC1 (centres unmarked) [compound 142]	10 to 25	25 to 100
COc1ccc(S(=O)(=O)N2CCN(C(C)c3nc4ccc(C(N)=O)cc4c(=O)n3C)CC2)cc1 (centres unmarked) [compound 143]	25 to 60	25 to 100
COc1ccc(S(=O)(=O)N2CCN(C(C)c3nc4ccc(-c5nnn[nH]5)cc4c(=O)n3C)CC2)cc1 (centres unmarked) [compound 144]	25 to 60	25 to 100
COc1ccc(S(=O)(=O)N2CCN(C(C)c3nc4ccc(N)cc4c(=O)n3C)CC2)cc1 (centres unmarked) [compound 145]	10 to 25	25 to 100
CC(c1nc2ccc(N)cc2c(=O)n1C)N1CCN(S(=O)(=O)c2ccc(Br)cc2)CC1 (centres unmarked) [compound 146]	< 10	> 100
CCCn1c([C@H](C)N2CCN(S(=O)(=O)c3ccc(Br)cc3)CC2)nc2ccccc2c1=O [compound 147]	< 10	> 100
CCCn1c([C@@H](C)N2CCN(S(=O)(=O)c3ccc(Br)cc3)CC2)nc2ccccc2c1=O [compound 148]	< 10	> 100
COc1ccc(S(=O)(=O)N2CCN(C(C)(C)c3nc4ccc(Cl)cc4c(=O)n3C)CC2)cc1 [compound 149]	< 10	25 to 100
CCCn1c(CN2CCN(S(=O)(=O)c3ccc(OC)cc3)CC2)nc2ccccc2c1=O [compound 150]	10 to 25	25 to 100
CCCn1c(CN2CCN(S(=O)(=O)c3ccc(Cl)cc3)CC2)nc2ccccc2c1=O [compound 151]	10 to 25	> 100
CCCn1c(CN2CCN(S(=O)(=O)c3ccc(Br)cc3)CC2)nc2ccccc2c1=O [compound 152]	< 10	> 100
CC(c1nc2ccccc2c(=O)n1CCO)N1CCN(S(=O)(=O)c2ccc(Br)cc2)CC1 (centres unmarked) [compound 153]	10 to 25	25 to 100
CC(c1nc2ccc(-c3nnn[nH]3)cc2c(=O)n1C)N1CCN(S(=O)(=O)c2ccc(Cl)cc2)CC1 (centres unmarked) [compound 154]	25 to 60	> 100
COc1ccc(S(=O)(=O)N2CCN(C(C)c3nc4ccc(NC(C)=O)cc4c(=O)n3C)CC2)cc1 (centres unmarked) [compound 155]	< 10	25 to 100
CC(c1nc2ccc(C(N)=O)cc2c(=O)n1C)N1CCN(S(=O)(=O)c2ccc(Br)cc2)CC1 (centres unmarked) [compound 156]	10 to 25	25 to 100
CC(c1nc2ccc(C(N)=O)cc2c(=O)n1C)N1CCN(S(=O)(=O)c2ccc(Cl)cc2)CC1 (centres unmarked) [compound 157]	25 to 60	25 to 100
CCCOc1nc(CC)nc2ccccc12 [compound 158]	25 to 60	< 25
CCc1nc(N(C)C)c2ccccc2n1 [compound 159]	25 to 60	< 25
COc1ccc(S(=O)(=O)NC2CCN(C(C)c3nc4ccccc4c(=O)n3C)C2)cc1 (centres unmarked) [compound 161]	25 to 60	< 25
